Test results published in patent publication US20230299326A1, “REDOX FLOW BATTERY” (MITSUBISHI HEAVY INDUSTRIES, LTD., priority 2020, published 2023).
In brackets after ≈: the same amount, converted by molar mass.

What was measured:
[1] = Solubility of the hydroquinone pentamer; type: physicochemical; conditions: per hydroquinone unit
[2] = Cyclic voltammogram of the hydroquinone pentamer (redox potential); type: physicochemical; conditions: glassy carbon working electrode, Ag/AgCl (3 M sodium chloride solution) reference, platinum wire counter electrode, sweep rate 25 mV/sec
From the text: A cyclic voltammogram of the hydroquinone pentamer thus obtained was obtained. The measurement was made using a 5-mm diameter glassy carbon as the working electrode, Ag/AgCl (3 M sodium chloride solution) as the reference electrode, and platinum wire as the counter electrode at a sweep rate of 25 mV/sec.

solubility [1]: 1800 mM (≈ 1100 mg/mL)
redox potential [2]: -0.75 V vs. SHE
Compound: Oc1cc2c(O)cc1Cc1cc(O)c(cc1O)Cc1cc(O)c(cc1O)Cc1cc(O)c(cc1O)Cc1cc(O)c(cc1O)C2 [hydroquinone pentamer]
